What was measured:
Huntington's Disease = conditions: in vivo; cited from earlier work
CNS ischemia = conditions: cited from earlier work
focal cerebral ischemia [1] = conditions: cited from earlier work
sound induced seizures = conditions: DBA/2 mice; cited from earlier work
formalin model = conditions: cited from earlier work
[2] = system: global and focal ischemic damage; conditions: in vivo; cited from earlier work
kainate (KA) receptor = assay: Antagonism of cortical wedge depolarization induced by kainate; type: cell-based, rat; conditions: kainate 10 μM; mean ± standard error (n=3); 15 min
Protocol: (§1) The depolarization of rat cortical wedges was used to test the selectivity and potency of the formula I compounds as AMPA and NTMDA antagonists using a technique similar to that described by Harrison and Simmonds. Harrison and Simmonds, Bri. J. Pharmacol., 84, 381-391 (1984). Generally, 4-ml aliquots of NMDA (40 μM), AMPA (40 μM), and kainate (10 μM) were superfused (2 ml/min.) on the grey matter at intervals of 15-20 minutes until stable responses were attained. The tissue was then exposed for 15 minutes to various concentrations of the formula I compounds before retesting the agonists. The IC50 values were calculated from linear regression of log dose-response curves, each point the mean of at least three observations on separate slices from more than one animal.

NMDA receptor [3] = assay: NMDA receptor radioligand binding, displacement of [3H]CGS19755 (rat forebrain synaptosomal membranes)
Protocol: (§2) The formula I compounds were tested for their ability to inhibit NMDA, AMPA, and kainic acid receptor binding to rat membranes in a radioligand binding assay using [^3 H]CGS19755, [^3 H]AMPA, and [^3 H]KA. For all radioligand binding assays, male Sprague-Dawley rats were used. Displacement of the specific binding [^3 H]CGS19755 (10 nM) to Triton-X-treated synaptosomal membranes of rat forebrain was used to determine NMDA receptor affinity. Non-specific binding was determined using 10 μM L-glutamate. Samples were incubated in an ice-bath for 30 minutes, and bound ligand was separated from the free ligand by rapid filtration through WHATMAN GF/B glass fiber filters. Murphy et al, British J. Pharmacol., 95, 932-938 (1988). Kainate binding was performed using washed synaptosomal membranes from the rat forebrain as described by Simon et al. Simon et al, J. Neurochem., 26, 141-147 (1976). Tritiated kainate (5 nM) was added to 50 mM Tris-HCl buffer (pH 7.4 at 4° C.) containing 200-300 μg/ml of tissue protein. Samples were incubated for 30 minutes in an ice-bath, then rapidly filtered using a Brandel cell harvester and WHATS GF/C filters. Filters were washed twice with 3 ml of cold buffer. Non-specific binding was determined using 100 μM non-labeled kainate. The binding of [^3 H]AMPA (5 nM) was conducted with crude membranes of rat forebrain in the presence of 100 mM KSCN as described by Nielson et al. Nielson et al, Eur. J. Med. Chem. Chem. Ther., 21, 433-437 (1986). Non-specific binding was determined with 10 μM non-labeled AHPA. The concentration of the formula I compound that inhibited 50% binding (IC50, mean ± standard error, n=3) as calculated by linear regression of displacement data transformed to the Hill equation as described by Bennett. Bennett, Neurotransmitter Receptor Binding, 57-90 (1978).

AMPA receptor [4] = assay: Antagonism of cortical wedge depolarization induced by AMPA; type: cell-based, rat; conditions: for IC50: AMPA 40 μM, mean ± standard error (n=3)
Protocol: as §1

NMDA receptor [5] = assay: Antagonism of cortical wedge depolarization induced by NMDA; type: cell-based, rat; conditions: for IC50: NMDA 40 μM, mean ± standard error (n=3)
Protocol: as §1

AMPA receptor [6] = assay: AMPA receptor radioligand binding, displacement of [3H]AMPA (crude membranes of rat forebrain)
Protocol: as §2

kainic acid receptor = assay: Kainate receptor radioligand binding, displacement of [3H]KA (washed synaptosomal membranes from rat forebrain); conditions: [3H]kainate 5 nM, pH 7.4; mean ± standard error (n=3); 21.0 of compound 2 is a single experiment (footnote d)
Protocol: as §2, with “The binding of [^3 H]AMPA (5 nM) was conducted with crude membranes of rat forebrain in the presence of 100 mM KSCN as described by Nielson et al. Nielson et al, Eur. J. Med. Chem. Chem. Ther., 21, 433-437 (1986).” left out, “The concentration of the formula I compound that inhibited 50% binding (IC50, mean ± standard error, n=3) as calculated by linear regression of displacement data transformed to the Hill equation as described by Bennett. Bennett, Neurotransmitter Receptor Binding, 57-90 (1978).” left out

global ischemia = conditions: in vivo; cited from earlier work
[7] = system: warm water tail withdrawal; conditions: rhesus monkeys; cited from earlier work
focal cerebral ischemia [8] = conditions: cited from earlier work; remark: listed apart in the source
[9] = [3H]CGS19755 10 nM, mean ± standard error (n=3), 0.96 of compound 2 is a single experiment (footnote d), read-out: IC50 NMDA (receptor binding)
[10] = [3H]AMPA 5 nM, 100 mM KSCN, mean ± standard error (n=3), read-out: IC50 AMPA (receptor binding)

Question: With O=C(O)[C@@H]1C[C@H]2C[C@@H](CP(=O)(O)O)CC[C@H]2CN1 (relative stereo) [LY274614] as the compound, how does the “neuroprotection in animal model of Huntington's Disease” value (Huntington's Disease) read?
Answer: neuroprotective

Question: With O=C(O)[C@H]1C[C@@H](Cc2nn[nH]n2)CCN1 (relative stereo) [LY233053] as the compound, how does the “protection in CNS ischemia model in rabbits” value (CNS ischemia) read?
Answer: provided protection

Question: With O=C(O)[C@H]1CN(C/C=C/P(=O)(O)O)CCN1 [D-(-)CPP-ene] as the compound, how does the “protection in focal cerebral ischemia model in cats” value (focal cerebral ischemia [1]) read?
Answer: provided protection

Question: And the “anticonvulsant against sound induced seizures” value (sound induced seizures)?
Answer: anticonvulsant

Question: Which “anticonvulsant against sound induced seizures” value (sound induced seizures) does the source give for C/C(=C\C(N)C(=O)O)CP(=O)(O)O (stereo not shown) [CGP 37849] here?
Answer: anticonvulsant

Question: For NC(CCCP(=O)(O)O)C(=O)O (racemic) [DL-AP5], which “analgesic in mouse formalin model” value (formalin model) is on record?
Answer: analgesic

Question: For NS(=O)(=O)c1cccc2c1c([N+](=O)[O-])cc1nc(O)c(O)nc12 [NBQX, 2,3-dihydroxy-6-nitro-7-sulfamoylbenzo[f]quinoxaline], which “prevention of global and focal ischemic damage” value [2] is on record?
Answer: effective in preventing global and focal ischemic damage

Question: Which “IC50 KA (cortical wedge depolarization)” value (kainate (KA) receptor) does the source give for O=C(O)[C@@H]1C[C@H]2C[C@@H](c3nn[nH]n3)CC[C@H]2CN1 [Compound 2, (3S, 4aR, 6S, 8aR)-6-(1(2)H-Tetrazole-5-yl)decahydroisoquinoline-3-carboxylic Acid] here?
Answer: > 100 µM

Question: What about the IC50 (NMDA receptor [3]; [9]) of the same compound?
Answer: 0.96 µM

Question: And the IC50 (NMDA receptor [3]; text summary of Table I, read-out: IC50 for displacement of [3H]CGS19755, summary statement)?
Answer: < 10 µM

Question: What about the IC50 (AMPA receptor [4]) of the same compound?
Answer: 13.2 ± 2.4 µM

Question: What about the AMPA receptor antagonism (AMPA receptor [4]; statement in words, Table II) of the same compound?
Answer: AMPA and NMDA receptor antagonists

Question: And the IC50 (NMDA receptor [5])?
Answer: 4.1 ± 0.3 µM

Question: What about the NMDA receptor antagonism (NMDA receptor [5]; statement in words, Table II) of the same compound?
Answer: AMPA and NMDA receptor antagonists

Question: What about the IC50 (AMPA receptor [6]; [10]) of the same compound?
Answer: 5.72 ± 0.89 µM

Question: And the IC50 (AMPA receptor [6]; text summary of Table I, read-out: IC50 for displacement of 3H-AMPA, summary statement)?
Answer: < 10 µM

Question: What about the “IC50 KA (receptor binding)” value (kainic acid receptor) of the same compound?
Answer: 21.0 µM

Question: With CC1=NN=C(c2ccc(N)cc2)c2cc3c(cc2C1)OCO3 [GKYI 52466] as the compound, how does the “neuroprotection in rat global ischemia models” value (global ischemia) read?
Answer: effective neuroprotective agent

Question: What does the source list for O=C(O)[C@@H]1C[C@H](CP(=O)(O)O)CCN1 [CGS 19755]?
Answer: analgesic in warm water tail withdrawal procedure [7]: analgesic; protection in focal cerebral ischemia model in rats (focal cerebral ischemia [8]): provided protection

Question: Which results are given for O=C(O)[C@@H]1C[C@H]2C[C@@H](c3nn[nH]n3)CC[C@H]2CN1 (relative stereo) [Compound 1, (3SR, 4aRS, 6SR, 8aRS)-6-(1(2)H-Tetrazole-5-yl)decahydroisoquinoline-3-carboxylic Acid]?
Answer: IC50 KA (cortical wedge depolarization) (kainate (KA) receptor): > 100 µM; IC50 (NMDA receptor [3]; [9]): 1.56 ± 0.23 µM; IC50 (AMPA receptor [4]): 40.9 ± 5.2 µM; IC50 (NMDA receptor [5]): 7.5 ± 0.7 µM; IC50 (AMPA receptor [6]; [10]): 12.8 ± 0.27 µM; IC50 KA (receptor binding) (kainic acid receptor): 31.84 ± 2.31 µM

Question: Which “protection in focal cerebral ischemia model in cats” value (focal cerebral ischemia [1]) does the source give for C[C@]12N[C@H](Cc3ccccc31)c1ccccc12 [dizocilpine] here?
Answer: provided protection

Question: What about the “protection in focal cerebral ischemia model in rats” value (focal cerebral ischemia [8]) of the same compound?
Answer: provided protection
